Test results taken from patent publication US12116358B2, “Substituted indoles and methods of use thereof” (EPIZYME, INC., priority 2018, dated 2024).
Read-outs that look alike come from different tables or passages of the source.

Tests used:
[1] = test system: H3K36me3 in A549 cells; assay: In-Cell Western (ICW) assay of SETD2 inhibitors (A549 assay); format: cell-based, human
In short: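 A549 cells seeded at 4,000/well onto compound and incubated 3 days at 37° C. Methanol-fixed cells stained overnight at 4° C with anti-H3K36me3 (1:1000), then IRDye 800CW secondary with DRAQ5 DNA counterstain. Plates read by Licor imaging at 700 and 800 channels.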

[2] = target: T1, SETD2(1434-1711) (Homo sapiens, UniProt Q9BYW2); assay: SETD2 (1434-1711) assay; format: biochemical
T1 construct: SETD2 (1434-1711) Assay; catalogue N/A
T1 sequence (Q9BYW2 1434-1711): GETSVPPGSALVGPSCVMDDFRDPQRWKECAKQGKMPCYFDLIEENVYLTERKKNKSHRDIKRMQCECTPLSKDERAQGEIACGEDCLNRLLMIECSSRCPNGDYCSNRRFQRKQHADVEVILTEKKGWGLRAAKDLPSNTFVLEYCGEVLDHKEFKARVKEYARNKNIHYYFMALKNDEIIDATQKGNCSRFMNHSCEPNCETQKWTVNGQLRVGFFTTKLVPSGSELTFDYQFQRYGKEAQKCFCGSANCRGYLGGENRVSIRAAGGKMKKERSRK

[3] = Homo sapiens, A549 cells, read-out: SETD2 A549
[4] = A549 cells, read-out: SETD2 A549

Compound | IC50 [1, 3] | IC50 ([2]; read-out: SETD2 (1434-1711)) | IC50 [1, 4] | IC50 ([1]; Homo sapiens, A549, read-out: SETD2 A549) | IC50 [2]
Cc1ccc(F)c2cc(C(=O)Nc3cccc(C4CNC(=O)C4)c3)[nH]c12 (centres unmarked) [compound 177] | 400 nM | 100 nM | – | – | –
Cc1ccc(F)c2cc(C(=O)Nc3cccc(N4CCC(N5CCC5)C4)c3)[nH]c12 (centres unmarked) [compound 178] | 400 nM | 10 nM | – | – | –
Cc1ccc(F)c2cc(C(=O)Nc3cccc(N4CCC5(CC4)CNC5)c3)[nH]c12 [compound 179] | 400 nM | 10 nM | – | – | –
Cc1ccc(F)c2cc(C(=O)Nc3cccc(N4CCC(N5CCCC5)CC4)c3)[nH]c12 [compound 180] | 400 nM | 30 nM | – | – | –
Cc1ccc(F)c2cc(C(=O)Nc3cccc(N4CCN5C(=O)NCC5C4)c3)[nH]c12 (centres unmarked) [compound 181] | – | 30 nM | 400 nM | – | –
Cc1ccc(F)c2cc(C(=O)Nc3cccc(N4CC5CCCN(C)C5C4)c3)[nH]c12 (centres unmarked) [compound 182] | – | 20 nM | 400 nM | – | –
Cc1ccc(F)c2cc(C(=O)Nc3cc(F)cc(N4CCCN(C)C(=O)C4)c3)[nH]c12 [compound 183] | 400 nM | 90 nM | – | – | –
Cc1ccc(F)c2cc(C(=O)Nc3cccc(N4CC5(CCNCC5)C4)c3)[nH]c12 [compound 184] | 400 nM | 10 nM | – | – | –
CC(=O)N1CCN(c2ccc(F)c(NC(=O)c3cc4c(F)ccc(C)c4[nH]3)c2)CC1 [compound 185] | 400 nM | 100 nM | – | – | –
Cc1ccc(F)c2cc(C(=O)Nc3cccc(N4CC[C@H](N(C)C)[C@H](F)C4)c3)[nH]c12 [compound 186] | 400 nM | 30 nM | – | – | –
Cc1ccc(F)c2cc(C(=O)Nc3cc(Cl)cc(N4CCC(CCCN5CCOCC5)CC4)c3)[nH]c12 [compound 188] | 400 nM | 20 nM | – | – | –
Cc1ccc(F)c2cc(C(=O)Nc3cccc(N4CCC5(CCNCC5)C4)c3)[nH]c12 [compound 189] | 400 nM | 6 nM | – | – | –
Cc1ccc(F)c2cc(C(=O)Nc3cccc(N4CCN(C)C4=O)c3)[nH]c12 [compound 191] | 400 nM | 30 nM | – | – | –
Cc1ccc(F)c2cc(C(=O)Nc3cccc(N4CCC(N)CC4)c3)[nH]c12 [compound 192] | 400 nM | 30 nM | – | – | –
CC(=O)N1CCN(c2cccc(NC(=O)c3cc4c(F)ccc(C)c4[nH]3)c2)CC1CC(C)C (centres unmarked) [compound 193] | 400 nM | 100 nM | – | – | –
Cc1ccc(F)c2cc(C(=O)Nc3cccc(C4(O)CCC(N(C)C)CC4)c3)[nH]c12 (centres unmarked) [compound 195] | 400 nM | 40 nM | – | – | –
Cc1ccc(F)c2cc(C(=O)Nc3cccc(-c4ccno4)c3)[nH]c12 [compound 196] | 400 nM | 100 nM | – | – | –
Cc1ccc(F)c2cc(C(=O)Nc3cccc(-c4cncn4C)c3)[nH]c12 [compound 197] | 400 nM | 100 nM | – | – | –
COC1CCN(c2cccc(NC(=O)c3cc4c(F)ccc(C)c4[nH]3)c2)CC1 [compound 198] | – | 70 nM | 400 nM | – | –
Cc1ccc(F)c2cc(C(=O)Nc3cccc(N4CCN(CC5CC5)CC4)c3)[nH]c12 [compound 199] | – | 50 nM | 400 nM | – | –
Cc1ccc(F)c2cc(C(=O)Nc3cccc(N4CCNC(=O)CC4)c3)[nH]c12 [compound 200] | – | 50 nM | 400 nM | – | –
Cc1ccc(F)c2cc(C(=O)Nc3cccc(N4CCN(C(C)C)C(=O)C4)c3)[nH]c12 [compound 201] | – | 90 nM | 400 nM | – | –
Cc1ccc(F)c2cc(C(=O)Nc3cccc(N4CC[C@@H](N(C)C)[C@@H](C)C4)c3)[nH]c12 [compound 202] | – | 20 nM | 400 nM | – | –
CCNCC1CN(c2cccc(NC(=O)c3cc4c(F)ccc(C)c4[nH]3)c2)CCO1 (centres unmarked) [compound 203] | – | 10 nM | 400 nM | – | –
Cc1ccc(F)c2cc(C(=O)Nc3cccc(N4CCN(CCO)CC4)c3)[nH]c12 [compound 204] | – | – | – | 400 nM | 80 nM
Cc1ccc(F)c2cc(C(=O)Nc3cccc(N4CCN(C(C)C)C(C)C4)c3)[nH]c12 (centres unmarked) [compound 205] | – | 30 nM | 400 nM | – | –
Cc1ccc(F)c2cc(C(=O)Nc3cccc(N4CCC5(CCN(CC(F)F)C5)CC4)c3)[nH]c12 [compound 206] | – | 90 nM | 400 nM | – | –
Cc1ccc(F)c2cc(C(=O)Nc3cccc(N4CCN(C5CCOCC5)CC4)c3)[nH]c12 [compound 207] | – | 100 nM | 400 nM | – | –

Second part, led by results:

IC50 [1, 3] | IC50 ([2]; read-out: SETD2 (1434-1711)) | IC50 [1, 4] | Compound | IC50 ([1]; Homo sapiens, A549, read-out: SETD2 A549) | IC50 [2]
– | 60 nM | 400 nM | Cc1ccc(F)c2cc(C(=O)Nc3cccc(N4CCN(C(=O)CN(C)C)CC4)c3)[nH]c12 [compound 208] | – | –
400 nM | 200 nM | – | Cc1ccc(F)c2cc(C(=O)Nc3cccc(N4CCOCC4=O)c3)[nH]c12 [compound 209] | – | –
– | 30 nM | 400 nM | Cc1ccc(F)c2cc(C(=O)Nc3cccc(N4CCC(NCCO)CC4)c3)[nH]c12 [compound 210] | – | –
– | 20 nM | 400 nM | Cc1ccc(F)c2cc(C(=O)Nc3cccc(N4CCC5(CCCN5C)CC4)c3)[nH]c12 [compound 212] | – | –
– | 100 nM | 500 nM | CC(=O)N1[C@H](C)CN(c2cccc(NC(=O)c3cc4c(F)ccc(C)c4[nH]3)c2)C[C@H]1C [compound 214] | – | –
– | 70 nM | 500 nM | Cc1ccc(F)c2cc(C(=O)Nc3cccc(-c4cc5cnccn5c4)c3)[nH]c12 [compound 215] | – | –
– | 100 nM | 500 nM | Cc1ccc(F)c2cc(C(=O)Nc3cccc(N4CCOCC4C)c3)[nH]c12 (centres unmarked) [compound 216] | – | –
– | 10 nM | 500 nM | Cc1ccc(F)c2cc(C(=O)Nc3cccc([C@@H]4CC[C@@H](N(C)C)C4)c3)[nH]c12 [compound 217] | – | –
– | 70 nM | 500 nM | Cc1ccc(F)c2cc(C(=O)Nc3cccc(N4CC5CC(C4)O5)c3)[nH]c12 [compound 218] | – | –
– | 60 nM | 500 nM | Cc1ccc(F)c2cc(C(=O)Nc3cccc(-c4cnn(CCO)c4)c3)[nH]c12 [compound 219] | – | –
– | 40 nM | 500 nM | Cc1ccc(F)c2cc(C(=O)Nc3cccc(N4CCN5CCCC5C4)c3)[nH]c12 (centres unmarked) [compound 220] | – | –
– | 20 nM | 500 nM | Cc1ccc(F)c2cc(C(=O)Nc3cccc(N4CCC(C)(N(C)C)CC4)c3)[nH]c12 [compound 222] | – | –
– | 90 nM | 500 nM | COCCN1CCN(c2cccc(NC(=O)c3cc4c(F)ccc(C)c4[nH]3)c2)CC1 [compound 223] | – | –
– | 200 nM | 500 nM | Cc1ccc(F)c2cc(C(=O)Nc3cccc(C4COC4)c3)[nH]c12 [compound 224] | – | –
– | 30 nM | 500 nM | CCCNC1CCN(c2cccc(NC(=O)c3cc4c(F)ccc(C)c4[nH]3)c2)CC1 [compound 225] | – | –
– | 60 nM | 500 nM | Cc1ccc(F)c2cc(C(=O)Nc3cccc(C4CCN(C(=O)CN(C)C)C4)c3)[nH]c12 (centres unmarked) [compound 226] | – | –
– | 30 nM | 500 nM | Cc1ccc(F)c2cc(C(=O)Nc3cccc(N4CCC(N(CCO)CCO)CC4)c3)[nH]c12 [compound 227] | – | –

IC50 [1, 3] | IC50 ([2]; read-out: SETD2 (1434-1711)) | IC50 [1, 4] | Compound | IC50 ([1]; Homo sapiens, A549, read-out: SETD2 A549) | IC50 [2]
– | 80 nM | 500 nM | Cc1ccc(F)c2cc(C(=O)Nc3cccc(-c4ccc(Cn5ccnc5)cc4)c3)[nH]c12 [compound 228] | – | –
– | 100 nM | 500 nM | Cc1ccc(F)c2cc(C(=O)Nc3cccc(N4CCN(C)C(C(F)(F)F)C4)c3)[nH]c12 (centres unmarked) [compound 229] | – | –
– | 40 nM | 500 nM | Cc1ccc(F)c2cc(C(=O)Nc3cc(F)cc(C4CCN(C5CCN(C)C5=O)C4)c3)[nH]c12 (centres unmarked) [compound 230] | – | –
– | 100 nM | 500 nM | Cc1ccc(F)c2cc(C(=O)Nc3cccc(-c4ccc(OCCO)cc4)c3)[nH]c12 [compound 231] | – | –
500 nM | 60 nM | – | Cc1ccc(F)c2cc(C(=O)Nc3cc(N4CCN(C)CC4)n4cncc4c3)[nH]c12 [compound 232] | – | –
– | 50 nM | 500 nM | Cc1ccc(F)c2cc(C(=O)Nc3cccc(N4CCn5ccnc5C4)c3)[nH]c12 [compound 233] | – | –
500 nM | 100 nM | – | Cc1ccc(F)c2cc(C(=O)Nc3cccc(-c4cccn5nccc45)c3)[nH]c12 [compound 235] | – | –
– | 200 nM | 600 nM | Cc1ccc(F)c2cc(C(=O)Nc3cccc(N4CCN(C5CC5)CC4)c3)[nH]c12 [compound 236] | – | –
– | 100 nM | 600 nM | Cc1ccc(F)c2cc(C(=O)Nc3cccc(-c4nncn4C)c3)[nH]c12 [compound 237] | – | –
– | 200 nM | 600 nM | Cc1ccc(F)c2cc(C(=O)Nc3cccc4ncccc34)[nH]c12 [compound 238] | – | –
– | 200 nM | 600 nM | Cc1ccc(F)c2cc(C(=O)Nc3cccc(-c4ccnn4C)c3)[nH]c12 [compound 239] | – | –
– | 20 nM | 600 nM | Cc1ccc(F)c2cc(C(=O)Nc3cccc(N4CCC(OCCN)CC4)c3)[nH]c12 [compound 240] | – | –
– | 10 nM | 600 nM | Cc1ccc(F)c2cc(C(=O)Nc3cccc(N4CCC5(CCNC5)CC4)c3)[nH]c12 [compound 241] | – | –
– | 100 nM | 600 nM | CC(=O)N1CCN(c2cc(NC(=O)c3cc4c(F)ccc(C)c4[nH]3)cc(C(F)(F)F)c2)CC1 [compound 242] | – | –
– | 50 nM | 600 nM | Cc1ccc(F)c2cc(C(=O)Nc3cccc(N4CCN(C(C)C)CC4)c3)[nH]c12 [compound 243] | – | –
– | 80 nM | 600 nM | Cc1ccc(F)c2cc(C(=O)Nc3cccc(CCN4CCN(C)CC4)c3)[nH]c12 [compound 244] | – | –
